The target in the assay is Nitric oxide synthase, brain (Bos taurus). Description: Inhibition against neuronal nitric oxide synthase (nNOS) from bovine brain was determined.

Take `C#CCNC(=N)N` [amino(prop-2-ynylamino)methaniminium]: the Ki amounted to 12 mM.

For the origin of these results see BindingDB's records for doi:10.1016/S0960-894X(97)00241-2 (1997).
